Results from publication PMC12040169 (PLOS Biology, 2025).

Experiment: in vitro
Details: human, hela cells, % viability

Row | Compound | viability at 28.5 h, 10 µM
1 | O=C(NCCc1ccc(O)cc1)c1cncc(-c2ccc(C(=O)N3CCOCC3)cc2)c1 [CBK158620] | 112%
2 | COc1cc2c(cc1NC(=O)C/C(C)=N/NC(=O)c1ccccc1F)oc1ccccc12 [CBK262437] | 106%
3 | O=C(O)COc1ccc(Br)cc1/C=N/Nc1cccc2cccnc12 [CBK262362] | 112%
4 | CCC1CCCCN1C(=O)c1cc2ccccc2s1 (stereo not drawn) [CBK074211] | 85.3%
5 | Cc1oc2[nH]c(CN(C)CCOc3ccc(Cl)cc3)nc(=N)c2c1C(=O)O [CBK279463] | 102%
6 | COc1ccc(CCN2C(=O)CC(C(=O)O)S/C2=N\c2ccc(Cl)cc2)cc1OC (stereo not drawn) [CBK263286] | 93.9%
7 | Cc1cc(C(=O)N2CCC3(C/C=C/CCOc4ccccc4C(=O)NCCCNC3=O)CC2)no1 [CBK292155] | 92.6%
8 | COC(=O)C(NC(=O)c1cnc(-c2cccc(C(F)(F)F)c2)c(-c2ccncc2)c1)c1ccccc1 (stereo not drawn) [CBK037624] | 98.9%
9 | COc1cc2c(cc1OC)C1c3ccccc3NC(=O)N1CC2 (stereo not drawn) [CBK284471] | 88%
10 | Cc1nc2c(C(=O)NCCNC(=O)c3cccnc3)ncn2c(C)c1Cc1ccc(F)c(Cl)c1 [CBK169332] | 89.8%
11 | COc1ccc(-c2nc3cc(C(C)C)ccc3o2)cc1NC(=O)Cc1ccc(Cl)cc1 [CBK266409] | 96.9%
12 | CCN(C(=O)Cc1cc(OC)ccc1Br)c1cccnc1 [CBK305318] | 97.7%
13 | Cc1oc(CC(C)C)c(CN2CCCCC2)c1C(=O)O [CBK265448C] | 113%
14 | Cc1c(C(=O)NC2CCCN(c3ncccn3)C2)cnn1C(C)(C)C (stereo not drawn) [CBK305652] | 91.3%
15 | CC(C)NC(=O)N[C@H]1CCN2C(=O)N(c3cccc4nsnc34)C(=O)[C@@H]2C1 [CBK289539] | 111%
16 | Cc1ccc(-n2c(SCC(=O)Nc3ccc(C)c([N+](=O)[O-])c3)nnc2-c2ccccc2O)c(C)c1 [CBK268769] | 96.6%
17 | Cc1nn(C)cc1C(C)NC(=O)c1ccc2c(c1)ncn2C (stereo not drawn) [CBK281732] | 103%
18 | Cc1cc(C)cc(-c2ccc(CC3(C(=O)NCC4CCCOC4)CCOCC3)cc2)c1 (stereo not drawn) [CBK286524] | 96.5%
19 | CCn1c2cc(C)sc2c2cnn(CC(=O)NC3CC3)c(=O)c21 [CBK284170] | 89.3%
20 | O=c1c2ccccc2nc(/C=C/c2cccnc2)n1Cc1ccccc1 [CBK265876] | 106%
21 | O=C1c2ccccc2CN1CCNS(=O)(=O)c1ccc2oc3ccccc3c2c1 [CBK264918] | 98.9%
22 | CC(C)(C)OC(=O)N1CCCC(C(=O)NC(C(N)=O)c2ccccc2)C1 (stereo not drawn) [CBK305766] | 99.8%

Row | Compound | viability at 28.5 h, 10 µM
23 | Cc1cc(OCC(O)CN2CCN(Cc3ccc4c(c3)OCO4)CC2)cc(C)c1Cl (stereo not drawn) [CBK074374] | 93.4%
24 | Cn1cc(C(c2ccccc2OCC(=O)O)c2cn(C)c3ccccc23)c2ccccc21 [CBK266410] | 112%
25 | O=C(Cn1c(-c2cccs2)cc2cccnc21)N1CCCC1 [CBK282453] | 83%
26 | Cc1ccc(S(=O)(=O)N(CC(=O)O)c2ccc(Cl)cc2)cc1 [CBK263767] | 106%
27 | O=C(O)c1cccc(N2N=C(c3ccccc3)CC2=O)c1 [CBK286966] | 96.5%
28 | NS(=O)(=O)c1ccc(CCNC(=O)c2ccc(Cl)c([N+](=O)[O-])c2)cc1 [CBK264395] | 94.8%
29 | O=C1N[C@H]2CCCN(C(=O)c3cc(=O)[nH]c(=O)[nH]3)[C@H]2C/C=C/CCOc2ccccc21 [CBK292065] | 107%
30 | O=C(Nc1nccs1)c1cc(=O)c2ccccc2o1 [CBK287570] | 105%
31 | O=C1NCCN1CCOc1nccnc1-c1ccc(F)cc1 [CBK106898] | 97.8%
32 | Brc1ccc(OCCCCCCN2CCCCC2)cc1 [CBK261784] | 97%
33 | CS(=O)(=O)N(CC(=O)Nc1ccc(S(=O)(=O)N2CCCC2)cc1)c1ccc2c(c1)OCO2 [CBK268995] | 97.7%
34 | COc1cccc(NC(=O)c2cnc(-c3ccc(Cl)cc3)c(-c3ccco3)c2)c1OC [CBK037428] | 103%
35 | CCCOc1ccc(Br)cc1/C=N/O [CBK288491] | 110%
36 | CNC(=O)C1(Cc2ccc(-c3ccccc3)cc2)CCN(C(=O)COc2ccccc2)CC1 [CBK285766] | 92.7%
37 | CCCC(=O)c1ccc(S(=O)(=O)N2CCN(Cc3ccc(C(C)=O)cc3)CC2)cc1 [CBK063159] | 107%
38 | COc1ccc([C@@]23CC[C@@H](NC(=O)Nc4ccc(OC(F)(F)F)cc4)C[C@@H]2N(C)CC3)cc1OC [CBK036455T] | 82.2%
39 | O=C1CCC(=O)N1CCOc1nccnc1-c1ccc2c(c1)OCO2 [CBK106698] | 92.3%
40 | COc1cc(CN2CCCCC2CO)c([N+](=O)[O-])cc1OC (stereo not drawn) [CBK261730] | 85.1%
41 | FC(F)(F)Oc1cccc(-c2cn3ccnc3c(NCCc3ccccn3)n2)c1 [CBK038017] | 96.7%
42 | Oc1ccc(/C=N/N(Cc2ccccc2)Cc2ccccc2)cc1 [CBK261414] | 98.2%
43 | CC(=O)Nc1ccc(N2C(=O)c3ccc(S(=O)(=O)c4ccc5c(c4)C(=O)N(c4ccc(NC(C)=O)cc4)C5=O)cc3C2=O)cc1 [CBK262105] | 77.8%
44 | CCOc1cc(NC2CCN(C(=O)C3(CCOC)CC3)CC2)ncn1 [CBK304434] | 98.2%

Row | Compound | viability at 28.5 h, 10 µM
45 | Cc1ccc(C(=O)/C=C(\Nc2cccc(C(F)(F)F)c2)C(=O)O)cc1 [CBK264366] | 101%
46 | OCCN(Cc1ccccc1)Cc1ccc(Cl)c(Cl)c1 [CBK261908] | 117%
47 | CCCC(=O)Nc1ccc(OCc2ncc(C(C)C)o2)c(C(C)=O)c1 [CBK305516] | 100%
48 | Cc1ccc(C2(O)CCN(Cc3c(C)nc4cc(C)ccn34)CC2)cc1 [CBK282733] | 80.5%
49 | Cc1cccc(C)c1OCCOCC(O)CN1CCN(C)CC1 (stereo not drawn) [CBK278206C] | 90.4%
50 | CC(=O)Nc1c(C#N)cnn1C [CBK046332] | 96%
51 | Cn1ccnc1[S+]([O-])Cc1nc2ccccc2s1 (stereo not drawn) [CBK005549] | 91.5%
52 | COc1ccccc1NC(=O)C(c1ccccc1)N1CCOCC1 (stereo not drawn) [CBK269561] | 107%
53 | O=C(CCC1CCCC1)n1ccn(C(c2ccccc2)c2ccccc2)c1=O [CBK106619] | 103%
54 | CC1CN(c2cc(CO)c(F)cn2)CC2(CCOCC2)O1 (stereo not drawn) [CBK304773] | 91.9%
55 | O=C(O)c1nn2c(C(F)(F)F)cc(-c3cccs3)nc2c1Cl [CBK262581] | 95.4%
56 | Cc1ccc(Cn2ncc3c(C(=O)N4CCC(N(C)S(C)(=O)=O)CC4)cc(C)nc32)cc1 [CBK298280] | 102%
57 | COc1ccc(/C=C(\C)C(=O)NCc2ccccc2OC2CCNC2)cc1OC (stereo not drawn) [CBK034157T] | 90%
58 | CC(NC(=O)C1CCN(Cc2cccs2)CC1)c1ccc(F)cc1 (stereo not drawn) [CBK148041] | 101%
59 | COc1ccc(CN2CCC[C@H]2c2nc(-c3ccc(OC)nc3)no2)c(O)c1 [CBK288898] | 92%
60 | O=C(O)CCC(=O)Nc1ccccc1C(=O)N1CCCCCC1 [CBK269863] | 86.3%
61 | O=C(COc1ccccc1)N/N=C/c1ccc[nH]1 [CBK261281] | 104%
62 | COc1ccc2cc(COC(=O)c3ccc([S+](C)[O-])cc3)c(Cl)nc2c1 (stereo not drawn) [CBK298267] | 99.5%
63 | COc1ccc2c(c1)CCCN2C(=O)Cn1nc(C)cc1C [CBK282042] | 91.5%
64 | Cc1cnn(CC(=O)N2CCC(c3cc4ncccc4[nH]3)CC2)c1 [CBK284458] | 77.2%
65 | CCn1ncc(S(=O)(=O)N2CCC(c3cccc(Cc4ccccc4C)n3)CC2)c1C [CBK286116] | 91%
66 | c1ccc(Cn2c3ccccc3c3nnc(SCc4ccc5nonc5c4)nc32)cc1 [CBK267517] | 91.5%

Row | Compound | viability at 28.5 h, 10 µM
67 | CCc1cccc(C)c1N(C(=O)Cn1c(=O)[nH]c2ccccc21)C(C)COC (stereo not drawn) [CBK287950] | 80.1%
68 | CCCc1n[nH]c(=S)n1CC(=O)NCc1ccc(N2CC(C)OC(C)C2)nc1 (stereo not drawn) [CBK297741] | 90.4%
69 | COc1ccc(-c2nc(-c3ccc(C#N)cc3)cnc2N)cc1OC [CBK063885] | 94.6%
70 | CCCS(=O)(=O)NC1CC(C)(C)Cc2c1cnn2-c1ccc(OC)cc1 (stereo not drawn) [CBK306730] | 103%
71 | COc1ccc(C2CCCN2C(=O)CC2CCN(C(=O)CC3CCCCC3)CC2)cc1 (stereo not drawn) [CBK286263] | 102%
72 | CS(=O)(=O)N1CCC(C(=O)NC(c2ccc(F)cc2)c2ccccn2)CC1 (stereo not drawn) [CBK059696] | 94.9%
73 | COc1ccc(OC)c(C(=O)N2CCNC(=O)C2Cc2ccccc2-c2ccc(F)cc2)c1 (stereo not drawn) [CBK285829] | 105%
74 | Nn1c(SCc2ccc(C(=O)O)cc2)nnc1-c1ccccn1 [CBK267553] | 90.8%
75 | O=C(O)CCCC(=O)N1N=C(c2ccccc2)CC1c1ccc2nccnc2c1 (stereo not drawn) [CBK286752] | 89.4%
76 | O=C(O)CCn1c(SCCc2ccccc2)nc2ccccc21 [CBK262384] | 107%
77 | CC(=O)Nc1ccc(S(=O)(=O)NC2(C(F)(F)F)N=C(c3ccccc3)NC2=O)cc1 (stereo not drawn) [CBK267932] | 113%
78 | CCc1c(C)nc2c(C(=O)NCCCOC)cnn2c1C [CBK162149] | 82.2%
79 | CCN(C)CC(=O)N1CCC(Oc2cc(C)ccc2F)(C(=O)O)CC1 [CBK307020] | 105%
80 | O=C(N[C@H]1C[C@H](c2nnc(CO)n2C2CC2)C1)c1ccc(Cl)c(F)c1 [CBK307093] | 91.4%
81 | CCN(CC)CCNC(=O)N1CCN(c2ccccc2)CC1 [CBK155202] | 116%
82 | CCc1nc2ccccc2n1CC(=O)O [CBK111477] | 101%
83 | CCc1nc2ccc(C(=O)NCCN3CCCC3)cn2c1N(C)C(=O)c1ccncc1 [CBK146655] | 90.5%
84 | C=CCn1c(COc2ccc(Cl)cc2)nnc1SCC(=O)O [CBK263171] | 105%
85 | Cc1cc(C)c(CNC(=O)C2CC(=O)N(Cc3ccccn3)C2)cn1 (stereo not drawn) [CBK304673] | 89.8%
86 | COCCCn1c(=O)[nH]c2ncc(-c3cccnc3)nc21 [CBK064929] | 104%
87 | N#Cc1ccccc1CSc1nc(N2CCOCC2)nc(N2CCOCC2)n1 [CBK268998] | 92.3%
